Test results reported in PubChem BioAssay (NCI).
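Interpolation was linear, between the two tested concentrations surrounding the appropriate level; five concentrations were tested over 48 hours in 96-well plates. GI50: concentration for 50% inhibition of growth. TGI is the concentration that stops growth completely.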

Assays:
Experiment in all cases: NCI anticancer screen, dose series, 48 h
ACHN renal = test system: ACHN renal
K-562 leukemia = test system: K-562 leukemia
MALME-3M melanoma = test system: MALME-3M melanoma
NCI-H522 lung = test system: NCI-H522 lung
OVCAR-3 ovarian = test system: OVCAR-3 ovarian
OVCAR-8 ovarian = test system: OVCAR-8 ovarian
SF-539 CNS = test system: SF-539 CNS
SK-MEL-2 melanoma = test system: SK-MEL-2 melanoma
UACC-62 melanoma = test system: UACC-62 melanoma
COLO 205 colon = test system: COLO 205 colon

Structure (SMILES) | GI50 (ACHN renal) [µM] | TGI (ACHN renal) [µM] | GI50 (K-562 leukemia) [µM] | TGI (K-562 leukemia) [µM] | TGI (MALME-3M melanoma) [µM] | GI50 (NCI-H522 lung) [µM] | TGI (NCI-H522 lung) [µM] | GI50 (OVCAR-3 ovarian) [µM] | TGI (OVCAR-3 ovarian) [µM] | TGI (OVCAR-8 ovarian) [µM] | GI50 (SF-539 CNS) [µM] | TGI (SF-539 CNS) [µM] | GI50 (SK-MEL-2 melanoma) [µM] | TGI (SK-MEL-2 melanoma) [µM] | GI50 (UACC-62 melanoma) [µM] | TGI (UACC-62 melanoma) [µM] | TGI (COLO 205 colon) [µM] | GI50 (COLO 205 colon) [µM] | GI50 (MALME-3M melanoma) [µM] | GI50 (OVCAR-8 ovarian) [µM]
C=C1CC[C@@H]2C(C)(C)[C@@H](O)CC[C@@]2(C)[C@@H]1COc1ccc2ccc(=O)oc2c1 | 14.3 | 29.2 | 6.43 | > 100 | 31.2 | 13.1 | 36.1 | 13 | 29.1 | 78.7 | 14.7 | 28.5 | 15.5 | 32.8 | 10.2 | 23.7 |  |  |  | 
C/C(=N/O)C1CC=C(S(=O)(=O)c2ccccc2)C1 (centres undefined) |  | > 100 |  | > 100 | > 100 |  | > 100 |  | > 100 | > 100 |  | > 100 |  | > 100 |  |  | > 100 |  |  | 
CC(=O)OC1C=CC2CCN3C(=O)c4cc5c(cc4[C@H]1C23)OCO5 (some centres undefined) |  | > 100 |  | > 100 | > 100 |  | > 100 |  | > 100 | > 100 |  | > 100 |  |  |  | > 100 | > 100 |  |  | 
Cc1cc2c3ccccc3n(C)c2c2c1C(=O)c1ccccc1C2=O |  |  |  | 55.1 | 35.4 |  | 49.2 |  | 54.1 | 76.2 |  | > 100 |  | 41.3 |  | 57.3 | 56.1 |  |  | 
CCOC(=O)CC(=O)ON(C)C(=O)Cc1ccccc1 |  | > 100 |  |  | > 100 |  | > 100 |  | > 100 | > 100 |  | > 100 |  | > 100 |  | > 100 | > 100 |  |  | 
COC(=O)/C(C#N)=C\N1CCN(C(=O)c2ccco2)C1=S | 4.81 | 23.3 | 3.68 | > 100 | 63.7 |  |  | 4.92 | 33.6 | 56.2 |  |  | 2.94 | 8.39 | 10.7 | 27.2 | > 100 | 31.7 | 32.7 | 15.5
COc1ccc(/C=C2\N=C(c3ccccc3)OC2=O)c(OCc2ccccc2)c1 |  | > 100 |  | > 100 | > 100 |  | 67.2 |  | 48.4 | 72 |  | 46.6 |  |  |  | 50 | > 100 |  |  | 
NC(=O)c1ccccc1NC(=O)C(=O)C(C(=O)c1ccc2ccccc2c1)C1OC(=O)c2ccccc21 (centres undefined) |  | > 100 |  | 83.9 | 26.3 |  | 43.2 |  | 39.6 |  |  |  |  | 33.2 |  | 22.5 | 24.6 |  |  | 
Cn1cc(-c2csc(-c3c[nH]c4ncccc34)n2)c2cc(Br)cnc21 | 2.35 | > 100 | 8.76 | > 100 | > 100 | 4.86 | > 100 | 2.91 | > 100 | > 100 | 27.7 | > 100 | 19.8 | 66.7 | 3.47 | > 100 |  |  | 3.01 | 3.72
COc1ccc(/C=C2/C(=O)N(C(=O)c3ccccc3O)N=C2C)cc1OC |  | > 100 |  | > 100 | > 100 |  | > 100 |  | 10.5 | > 100 |  |  |  | > 30.9 |  | 0.591 | > 95.1 |  |  | 
Cc1cc(C)nc(NS(=O)(=O)c2ccc(Nc3c4ccccc4nc4c(C(=O)NCCN(C)C)ccc(Cl)c34)cc2)n1 |  | 8.97 |  | 11.7 |  |  | 3.32 |  | 23 | 2.69 |  | 11.5 |  | 12.1 |  | 3.59 | 2.64 |  |  | 
COC(=O)[C@]12CC[C@@H](C)[C@H](C)[C@@H]1C1=CC[C@@H]3[C@@]4(C)C[C@@H](OC(=O)c5ccco5)[C@H](O)[C@@](C)(CO)[C@@H]4[C@H](O)C[C@@]3(C)[C@]1(C)CC2 | 2.76 | 7.69 | 2.35 | 5.42 | 4.3 | 1.82 | 3.96 | 2.19 | 4.73 | 10.4 | 2.28 | 5.17 | 1.97 | 4.31 |  |  | 3.44 | 1.82 | 2.15 | 3.37
CN(C)c1cccc(-c2cc(=O)c3ccccc3[nH]2)c1 |  | > 100 |  |  | > 100 |  | 57.6 | 42.1 | > 100 | > 100 |  | > 100 |  |  |  | > 100 | > 100 |  |  | 
COc1cc2c(cc1OCCCCNC(=O)c1cc3ccccc3[nH]1)N=CC1CCCN1C2=O (centres undefined) | 22.6 | > 100 | 8.35 | > 100 | 47.7 | 4.43 | 79.9 | 8.59 | > 100 | 78.9 | 8.57 | 41.7 |  |  | 15.8 | 40.7 | > 100 | 16 | 20 | 16.7
Nc1ccc2c(c1)C(=O)c1ccc(F)cc1-2 |  | > 100 |  | > 100 |  |  | > 100 |  | > 100 | > 100 |  | > 100 |  | > 100 |  | > 100 | > 100 |  |  | 
Cc1ccc(/C=C(\C#N)n2nnc3cc(Cl)c(Cl)cc32)cc1 | 1.8 | 3.63 | 0.892 | 33.2 | 6.21 | 2.72 | 14.9 | 2.93 | 12.8 | > 100 | 2.53 | 6.6 | 3.96 | > 100 |  |  | 7.16 | 2.62 | 2.18 | 2.87
CC1=C(C(=O)Nc2cccc(C(F)(F)F)c2)C(c2ccc(O)cc2)C(C(=O)Nc2cccc(C(F)(F)F)c2)=C(C)N1 |  | 96.2 |  | 44.7 | 64.4 |  | 34.4 |  | 31.8 | 76.6 |  | 60.5 |  | 34.6 |  |  | 27 |  |  | 
CC(=O)Nc1ccc2nncnc2c1 |  | > 100 |  | > 100 |  |  | > 100 |  | > 100 |  |  | > 100 |  | > 100 |  | > 100 | > 100 |  |  | 
CCOC(=O)C1=C(Nc2ccccc2)OC/C1=N\NC(=O)Cc1ccccc1 |  |  |  | > 50 | > 50 |  | > 50 |  | > 50 | > 50 |  | > 50 |  | > 50 |  | > 50 | > 50 |  |  | 
